Source: patent US20250204528A1, “USE OF 2-AMINO-3-INDOLYL BUTYRIC ACID OR 3-METHYLPYRROLIDINE-2-CARBOXYLIC ACID AS PLANT IMMUNITY ELICITOR” (NANJING TIANNONG BIOTECHNOLOGY CO., LTD, priority 2021, published 2025)
“And” between values parts separate entries of the source, which are not always exact repeats. Identical values can stand only once.

Assays:
Arabidopsis thaliana = Arabidopsis thaliana under high temperature stress; assay type: in vivo; set-up: Heat damage index: scale not given here; details: for Heat damage index: 45° C. 12 h, recovery 7 d; for PIABS: photosynthetic performance index after 45° C. 12 h; for Heat damage index reduced by: vs control group
Experimental: Arabidopsis thaliana seeds were sown in a pot with the diameter of 8.5 cm according to about 50 seeds per pot and planted in a greenhouse at 25° C. with the humidity of 60%-70% and the light intensity of 100 μmolm^−2s^−1 (16 h light/8 h dark). The treatment was started when the Arabidopsis thaliana normally grew for 21 d. Concentrations at 0 nm, 1 nm, 10 nm, 100 nm and 1,000 nm were set in the experiment. Meanwhile, 0.02% Tween 20 was added as a surfactant and four replicates were set. The spraying treatment was the same as that of the ryegrass in example 5. 24 h after the second spraying, the Arabidopsis thaliana was transferred to an illumination incubator at 45° C. for a high temperature stress treatment for 12 h. The chlorophyll fluorescences of the Arabidopsis thaliana leaf wafers were measured by using the plant efficiency Handy-PEA. The plants were taken out and transferred to the greenhouse at 25° C. for recovery for 7 d. The damage conditions of the plants were observed and counted, and the heat damage grades were calculated.

"Sikang 1" cotton = assay: Cotton under salt stress (100 mM NaCl); assay type: in vivo; details: 100 mM NaCl three days; for Mortality (%): cotton plants
Experimental: An experimental material was “Sikang 1” cotton which was hydroponic in a 500-mL plastic cup, and a ½ Hoagland nutrient solution was replaced every other two days. When the cotton seedling grew until the second true leaves were completely unfolded, a 2-amino-3-indolyl butyric acid solution was sprayed on the leaf surfaces. Concentrations at 0 nm, 1 nm, 10 nm, 100 nm and 1,000 nm were set in the experiment. Meanwhile, 0.02% Tween 20 was added as a surfactant. The solution was sprayed every 24 h for 2 times and NaCl was added into a ½ Hoagland nutrient solution the next day after the treatment to make the final concentration of 100 mM to perform a salt stress treatment. Each treatment was performed in three replicates. A rehydration treatment was performed after three days of the salt stress. The salt damage symptoms of the cotton were observed and a salt damage index was calculated by using a calculation formula as follows.

hydroponic wheat = assay: Wheat under drought stress (25% PEG-6000); assay type: in vivo; details: for Drought damage index (%) / Dry weight(g) Overground part / Dry weight(g) Underground part / Fresh weight (g) Overground part / Fresh weight (g) Underground part / Root length (cm): 25% PEG-6000 6 d, recovery 7 d; for Drought damage index reduced by / Fresh weight of the overground part improved by / Fresh weight of the underground part improved by / Root length of the wheat seedlings increased by: compared with the control group
Experimental: A 6-mesh sieve was used as a container to hydroponic wheat, 50 grains were sieved each time, a ½ Hoagland nutrient solution was replaced every other two days, a 2-amino-3-indolyl butyric acid solution was sprayed on the leaf surfaces when the wheat grew to a stage of two true leaves and one terminal bud, wherein the concentrations of 2-amino-3-indolyl butyric acid were 0 nm, 100 nm and 1,000 nm, and meanwhile, 0.02% of Tween-20 was added as a surfactant. After continuously spraying for two days, on the third day, the hydroponic nutrient solution was replaced with a ½ Hoagland nutrient solution containing 25% PEG-6000 to perform a stress treatment, a rehydration treatment was performed after the drought stress for 6 d, the wheat recovered to grow for 7 d in a normal nutrient solution, a drought damage index was observed and determined, and the root length and biomass were determined.
The performance characteristics of the leaves subjected to the drought damage were similar to those of the leaves subjected to a salt damage. The drought damage rate and the drought damage index were introduced by using the evaluation index of the salt damage, a drought damage index formula was as follows, and the drought damage grading standard was shown in table 16.

[1] = test system: wheat powdery mildew fungus; assay: Induction of wheat against infection by powdery mildew fungi (greenhouse pots); assay type: in vivo, wheat (NAU0686); details: for Disease index of the susceptible wheat / Relative immune effect: concentration greater than 1,000 nm
Experimental: […] A blank control was additionally set. After germination of wheat (NAU0686) seeds was accelerated, the wheat was planted in a sterilized soil culture bowl and cultured in a greenhouse at 23±1° C. with the illumination for 12 h. When the seedlings grew to a stage of one true leaf and one terminal bud, the wheat seedlings were sprayed with the 2-amino-3-indolyl butyric acid solutions at the above concentrations on stems and leaves. The treatment was repeated once every 24 h and a total of two treatments was performed. Fresh wheat powdery mildew fungus spores were evenly scattered on the wheat leaves after 24 h. 3 pots of the plants were treated each time with 20 plants in each pot. After 10 d, the disease grade of the wheat after each treatment was investigated. The disease degree was recorded according to the wheat powdery mildew grading standard in the Guidelines for Field Efficacy Trials of Pesticides (I), and the disease indexes and the relative immune effects were calculated by using the same calculation formula as that of those of the tomato spotted wilt.
Grading standard of wheat powdery mildew (taking leaves as units): • grade 1: the area of the disease spots accounted 5% or less of that of the whole leaves; • grade 3: the area of the disease spots accounted for 6%-15% of that of the whole leaves; and • grade 5: the area of the disease spots accounted for 16%-25% of that of the whole leaves; and • grade 7: the area of the disease spots accounted for 26%-50% of that of the whole leaves; and • grade 9: the area of the disease spots accounted for 50% or more of that of the whole leaves.

[2] = treatment concentration 10,000 nm

| Structure (SMILES) | Heat damage index (Arabidopsis thaliana; 1 nm) | PIABS (Arabidopsis thaliana; 1 nm) | Heat damage index (Arabidopsis thaliana; 10 nm) | PIABS (Arabidopsis thaliana; 10 nm) | Heat damage index (Arabidopsis thaliana; 100 nm) | PIABS (Arabidopsis thaliana; 100 nm) | PIABS increased by (times) compared with the control group (Arabidopsis thaliana; 1,000 nm) | Heat damage index (Arabidopsis thaliana; 1,000 nm) | PIABS (Arabidopsis thaliana; 1,000 nm) | Heat damage index reduced by (Arabidopsis thaliana; 1,000 nm) | Salt damage index (%) ("Sikang 1" cotton; 1 nm) | Mortality (%) ("Sikang 1" cotton; 1 nm) | Salt damage index (%) ("Sikang 1" cotton; 10 nm) | Mortality (%) ("Sikang 1" cotton; 10 nm) | Salt damage index (%) ("Sikang 1" cotton; 100 nm) | Mortality (%) ("Sikang 1" cotton; 100 nm) | Salt damage index (%) ("Sikang 1" cotton; 1,000 nm) | Mortality (%) ("Sikang 1" cotton; 1,000 nm) | Drought damage index (%) (hydroponic wheat; 100 nm) | Dry weight(g) Overground part (hydroponic wheat; 100 nm) | other results |
| --- | --- | --- | --- | --- | --- | --- | --- | --- | --- | --- | --- | --- | --- | --- | --- | --- | --- | --- | --- | --- | --- |
| CC(c1c[nH]c2ccccc12)C(N)C(=O)O (stereo not shown) | 58 | 0.90 ± 0.04e | 46 | 1.14 ± 0.15 days | 33 | 3.28 ± 0.20c | 20 times | 10 | 7.13 ± 0.23b | 65% | 63% | 45% | 57% | 43% | 53% | 33% | 44% | 27% | 44% | 0.82 ± 0.01b g | Dry weight(g) Underground part (hydroponic wheat; 100 nm): 0.35 ± 0.01a g; Fresh weight (g) Overground part (hydroponic wheat; 100 nm): 7.28 ± 0.05b g; Fresh weight (g) Underground part (hydroponic wheat; 100 nm): 3.66 ± 0.01b g; Root length (cm) (hydroponic wheat; 100 nm): 13.97 ± 0.03a cm; Drought damage index (%) (hydroponic wheat; 1,000 nm): 24%; Dry weight(g) Overground part (hydroponic wheat; 1,000 nm): 0.90 ± 0.05a g; Dry weight(g) Underground part (hydroponic wheat; 1,000 nm): 0.38 ± 0.01a g; Fresh weight (g) Overground part (hydroponic wheat; 1,000 nm): 8.87 ± 0.09a g; Fresh weight (g) Underground part (hydroponic wheat; 1,000 nm): 4.51 ± 0.02a g; Root length (cm) (hydroponic wheat; 1,000 nm): 14.60 ± 0.01a cm; Drought damage index reduced by (hydroponic wheat; 1,000 nm): 44%; Fresh weight of the overground part improved by (hydroponic wheat; 1,000 nm): 44.93%; Fresh weight of the underground part improved by (hydroponic wheat; 1,000 nm): 54.98%; Root length of the wheat seedlings increased by (hydroponic wheat; 1,000 nm): 10.86%; Disease index of the susceptible wheat [1]: lower than 50; Relative immune effect [1]: exceeded 50%; Relative immune effect (%) ([1]; treatment concentration 10 nm): 22.04%; Relative immune effect (%) ([1]; treatment concentration 100 nm): 32.59%; Relative immune effect (%) ([1]; treatment concentration 1,000 nm): 53.58%; Relative immune effect (%) [1, 2]: 68.42% and 68.43% |
| CC1CCNC1C(=O)O (stereo not shown) [3-methylpyrrolidine-2-carboxylic acid] | 48 | 1.87 ± 0.03e | 37 | 4.06 ± 0.17 days | 30 | 6.53 ± 0.23c | 23 times | 8 | 10.26 ± 0.46b | 68% | 67% | 47% | 54% | 42% | 49% | 28% | 39% | 24% | 39% | 0.98 ± 0.07b g | Dry weight(g) Underground part (hydroponic wheat; 100 nm): 0.47 ± 0.05b g; Fresh weight (g) Overground part (hydroponic wheat; 100 nm): 7.83 ± 0.10b g; Fresh weight (g) Underground part (hydroponic wheat; 100 nm): 3.85 ± 0.05b g; Root length (cm) (hydroponic wheat; 100 nm): 14.50 ± 0.21b cm; Drought damage index (%) (hydroponic wheat; 1,000 nm): 20%; Dry weight(g) Overground part (hydroponic wheat; 1,000 nm): 1.11 ± 0.06a g; Dry weight(g) Underground part (hydroponic wheat; 1,000 nm): 0.55 ± 0.03a g; Fresh weight (g) Overground part (hydroponic wheat; 1,000 nm): 9.12 ± 0.13a g; Fresh weight (g) Underground part (hydroponic wheat; 1,000 nm): 4.67 ± 0.11a g; Root length (cm) (hydroponic wheat; 1,000 nm): 15.03 ± 0.31a cm; Drought damage index reduced by (hydroponic wheat; 1,000 nm): 61%; Fresh weight of the overground part improved by (hydroponic wheat; 1,000 nm): 44.08%; Fresh weight of the underground part improved by (hydroponic wheat; 1,000 nm): 36.55%; Root length of the wheat seedlings increased by (hydroponic wheat; 1,000 nm): 12.58%; Disease index of the susceptible wheat [1]: lower than 50; Relative immune effect [1]: exceeded 50%; Relative immune effect (%) ([1]; treatment concentration 10 nm): 25.04%; Relative immune effect (%) ([1]; treatment concentration 100 nm): 43.73%; Relative immune effect (%) [1, 2]: 68.57% |
